Experiments:
insect = conditions: from Schneiderman and Gilbert, Science 143; cited from earlier work
[1] = system: Drosophila melangaster EcR isoforms; test: Drosophila melanogaster EcR isoforms, response to ecdysteroid agonists (FIG. 8); format: cell-based
Procedure: Unless noted otherwise, 100 ng of each EcR and USP plasmid was transfected into 2 ml of cell culture medium. As noted above, a reporter gene carrying five tandem copies of the hsp27 ecdysone response element (Riddihough and Pelham, 1986) is attached to a constitutive thymidine kinase promoter and a luciferase reporter gene (pEcREtk-LUC) and cotransfected into the cells along with vectors expressing EcR, USP, and a constitutively active β-galactosidase gene with lipofection, following manufacturer's protocols. The subsequent measure of luciferase activity reflects ecdysteroid-inducible transcription.
The Drosophila EcR isoform vectors (A, B1, and B2) used for these experiments have been described previously (Mouillet et al, 2001). These vectors lack the F-domain, which is also not essential for in vivo function (Cherbas et al, 2003). Additionally, three different VP16-USP vectors were utilized. Construction is of the VP16-USP vectors is described below. As in the earlier study, hsp27-EcRE mediated transcriptional activity was measured by detecting the luminescence produced by luciferase in transfected cell extracts. Luciferase activity was normalized by transfection with a plasmid that constitutively expresses the β-galactosidase gene such that enzymatic activity correlated with cellular mass. […]

GGEc = target: T1, GGEc (Drosophila melanogaster, UniProt P34021); test: GGEc chimera (GR amino terminus and DBD, EcR LBD) with RXR in CHO cells; format: cell-based; conditions: 20 μM juvocimene; 0.2 μM muristerone A
T1 construct: were replaced by EcR LBD amino acids (EcR amino acids 329 to 878); expressed in transfected cells; host or cells: CHO
T1 sequence (P34021 329-878): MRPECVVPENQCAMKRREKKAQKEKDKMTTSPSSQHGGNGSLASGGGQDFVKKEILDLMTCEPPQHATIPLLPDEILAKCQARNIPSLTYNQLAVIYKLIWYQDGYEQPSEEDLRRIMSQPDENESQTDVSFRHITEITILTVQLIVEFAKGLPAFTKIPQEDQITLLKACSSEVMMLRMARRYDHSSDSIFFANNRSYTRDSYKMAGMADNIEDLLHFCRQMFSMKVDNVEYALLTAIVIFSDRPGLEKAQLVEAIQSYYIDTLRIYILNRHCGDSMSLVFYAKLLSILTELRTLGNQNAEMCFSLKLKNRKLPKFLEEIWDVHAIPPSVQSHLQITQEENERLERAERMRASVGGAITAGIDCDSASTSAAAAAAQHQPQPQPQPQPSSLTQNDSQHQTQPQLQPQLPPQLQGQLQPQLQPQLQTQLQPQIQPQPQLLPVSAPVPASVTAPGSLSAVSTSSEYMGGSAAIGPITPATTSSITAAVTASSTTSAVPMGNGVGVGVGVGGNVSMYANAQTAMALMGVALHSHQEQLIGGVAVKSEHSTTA
Source text: For these experiments, the luciferase reporter construct was used. To obviate influences from other transcription factors, results were normalized using a reporter plasmid from which CAT expression is driven by a minimal promoter consisting of dimerized GREs linked upstream of a 13 base pair TATA box DNA element derived from the adenovirus E1B gene.
In this experiment, GGEc and RXR were transfected into CHO cells with either a CAT or a luciferase reporter plasmid containing 1.5 kilobase pairs of the glucocorticoid-inducible mouse mammary tumor virus (MTV) promoter.
In these experiments, CHO cells were transfected with a GGEc-expressing plasmid, a mouse RXRα expression plasmid, and an adenovirus E1b TATA-(GRE)2-CAT reporter plasmid. The GGEc plasmid was eliminated from DNA mixtures added to cells transfected in parallel. CAT activities were measured from lysates of cells from triplicate wells treated with ethanol vehicle, juvocimene (20 μM), muristerone A (0.2 μM), or both.
In these experiments, CHO cells were transfected with DNAs as described above but ubiquinone-2 (10 μM) was substituted for juvocimene.

Molecule: CC(C)=CCCC(C)=CCCC(C)=CC(=O)O [farnesoic acid]
- JH ACTIVITY (units/g) (insect): 7.8 units/g

Molecule: CC(C)CC[C@@H](O)[C@](C)(O)[C@H]1CC[C@@]2(O)C3=CC(=O)[C@]4(O)C[C@@H](O)[C@@H](O)C[C@]4(C)[C@H]3[C@H](O)C[C@]12C [murA, muristerone A]
- stimulation of Drosophila EcR isoforms, agonists compared [1]: much greater stimulation by murA, than either 20E or RH 2485

Molecule: juvocimene
- GGEc activity increase over MUR (GGEc): 7 times

— patent US8637237B2, “Methods, compositions, and systems for the identification of species-specific or developmental stage-specific insecticides” (The University of North Carolina at Greensboro, priority 2003, dated 2014)
